Laboratory results published in US20220089578A1, “COMPOUNDS AS GLP-1R AGONISTS” (Terns Pharmaceuticals, Inc., priority 2020, published 2022).

Target: human GLP-1R (Homo sapiens, UniProt P43220)
Assay: GLP-1R Cell Assay 1: cAMP Hunter CHO-K1 GLP1R Gs cell line, HitHunter cAMP assay
Assay type: cell-based
Conditions: cAMP Hunter CHO-K1 GLP1R Gs cells, percent activity normalized to Exendin-4
Summary of the method: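 CHO-K1 cells overexpressing wild-type human GLP-1R treated with 3-fold serially diluted compounds for 30-60 min at 37 °C. cAMP measured by EFC competitive luminescent immunoassay; activity normalised to Exendin-4, duplicate runs, EC50 by nonlinear regression.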

Chain of human GLP-1R (P43220 24-463): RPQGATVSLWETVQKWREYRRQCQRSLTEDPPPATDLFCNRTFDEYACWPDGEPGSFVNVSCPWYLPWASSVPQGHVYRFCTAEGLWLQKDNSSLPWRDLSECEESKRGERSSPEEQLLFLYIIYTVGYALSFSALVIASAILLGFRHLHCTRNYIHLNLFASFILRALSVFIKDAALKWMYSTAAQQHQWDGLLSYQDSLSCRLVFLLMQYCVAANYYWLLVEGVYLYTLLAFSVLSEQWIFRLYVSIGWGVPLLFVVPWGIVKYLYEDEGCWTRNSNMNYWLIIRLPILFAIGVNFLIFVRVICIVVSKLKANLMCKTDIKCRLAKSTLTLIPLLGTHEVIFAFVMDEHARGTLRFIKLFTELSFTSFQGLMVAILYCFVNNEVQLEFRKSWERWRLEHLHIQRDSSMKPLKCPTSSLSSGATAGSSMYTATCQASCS

Compound	EC50 (Table 2) [nM]	EC50 (Table 3) [nM]
N#Cc1ccc(COc2nn(C3CCN(Cc4nc5ccc(C(=O)O)cc5n4C[C@@H]4CCO4)CC3)cc2C(F)F)c(F)c1 [Compound 135, (S)-2-((4-(3-((4-cyano-2-fluorobenzyl)oxy)-4-(difluoromethyl)-1H-pyrazol-1-yl)piperidin-1-yl)methyl)-1-(oxetan-2-ylmethyl)-1H-benzo[d]imidazole-6-carboxylic acid]	4.88	
N#Cc1ccc(COc2nn(C3CCN(Cc4nc5ccc(C(=O)O)cc5n4C[C@@H]4CCO4)CC3)cc2CO)c(F)c1 [Compound 136, (S)-2-((4-(3-((4-cyano-2-fluorobenzyl)oxy)-4-(hydroxymethyl)-1H-pyrazol-1-yl)piperidin-1-yl)methyl)-1-(oxetan-2-ylmethyl)-1H-benzo[d]imidazole-6-carboxylic acid]	109	
CCn1cncc1Cn1c(CN2CCC(c3cccc(N4CCc5cc(C#N)cc(F)c5C4)n3)CC2)nc2ccc(C(=O)O)cc21 [Compound 137, 2-((4-(6-(6-cyano-8-fluoro-3,4-dihydroisoquinolin-2(1H)-yl)pyridin-2-yl)piperidin-1-yl)methyl)-1-((1-ethyl-1H-imidazol-5-yl)methyl)-1H-benzo[d]imidazole-6-carboxylic acid]	0.0514	
CCn1cncc1Cn1c(CN2CCC3(c4cccc5c4OC(C)(c4ccc(Cl)cc4F)O5)CC3C2)nc2ccc(C(=O)O)cc21 (stereo not shown) [Compound 138, 2-((6-(2-(4-chloro-2-fluorophenyl)-2-methylbenzo[d][1,3]dioxol-4-yl)-3-azabicyclo[4.1.0]heptan-3-yl)methyl)-1-((1-ethyl-1H-imidazol-5-yl)methyl)-1H-benzo[d]imidazole-6-carboxylic acid]	0.108	
O=C(O)c1ccc2nc(CN3CCC(c4cccc(OCc5nccs5)n4)CC3)n(C[C@@H]3CCO3)c2c1 [Compound 139, (S)-1-(oxetan-2-ylmethyl)-2-((4-(6-(thiazol-2-ylmethoxy)pyridin-2-yl)piperidin-1-yl)methyl)-1H-benzo[d]imidazole-6-carboxylic acid]	2.65	
CCn1cncc1Cn1c(CN2CCC(c3cccc(OCc4ccc(C#N)cc4F)n3)CC2)nc2ccc(C(=O)O)cc21 [Compound 142, 2-((4-(6-((4-cyano-2-fluorobenzyl)oxy)pyridin-2-yl)piperidin-1-yl)methyl)-1-((1-ethyl-1H-imidazol-5-yl)methyl)-1H-benzo[d]imidazole-6-carboxylic acid]	0.00833	
N#Cc1ccc(CN2CCCc3ccc(C4CCN(Cc5nc6ccc(C(=O)O)cc6n5C[C@@H]5CCO5)CC4)nc32)c(F)c1 [Compound 143, (S)-2-((4-(8-(4-cyano-2-fluorobenzyl)-5,6,7,8-tetrahydro-1,8-naphthyridin-2-yl)piperidin-1-yl)methyl)-1-(oxetan-2-ylmethyl)-1H-benzo[d]imidazole-6-carboxylic acid]		> 500
N#Cc1ccc(N2CCc3ccc(N4CCN(Cc5nc6ccc(C(=O)O)cc6n5C[C@@H]5CCO5)CC4)nc3C2)c(F)c1 [Compound 144, (S)-2-((4-(7-(4-cyano-2-fluorophenyl)-5,6,7,8-tetrahydro-1,7-naphthyridin-2-yl)piperazin-1-yl)methyl)-1-(oxetan-2-ylmethyl)-1H-benzo[d]imidazole-6-carboxylic acid]		> 500
N#Cc1ccc(CCn2ccc(C3CCN(Cc4nc5ccc(C(=O)O)cc5n4C[C@@H]4CCO4)CC3)n2)c(F)c1 [Compound 145, (S)-2-((4-(1-(4-cyano-2-fluorophenethyl)-1H-pyrazol-3-yl)piperidin-1-yl)methyl)-1-(oxetan-2-ylmethyl)-1H-benzo[d]imidazole-6-carboxylic acid]		> 500
N#Cc1ccc(-n2ccc3c(C4CCN(Cc5nc6ccc(C(=O)O)cc6n5C[C@@H]5CCO5)CC4)cccc3c2=O)c(F)c1 [Compound 147, (S)-2-((4-(2-(4-cyano-2-fluorophenyl)-1-oxo-1,2-dihydroisoquinolin-5-yl)piperidin-1-yl)methyl)-1-(oxetan-2-ylmethyl)-1H-benzo[d]imidazole-6-carboxylic acid]		> 500
N#Cc1ccc(CN2CCCc3ccc(N4CCN(Cc5nc6ccc(C(=O)O)cc6n5C[C@@H]5CCO5)CC4)nc32)c(F)c1 [Compound 148, (S)-2-((4-(8-(4-cyano-2-fluorobenzyl)-5,67,8-tetrahydro-1,8-naphthyridin-2-yl)piperazin-1-yl)methyl)-1-(oxetan-2-ylmethyl)-1H-benzo[d]imidazole-6-carboxylic acid]		> 500
O=C(O)c1ccc2nc(CN3CCN(c4ccc5c(n4)N(Cc4ccccc4)CCO5)CC3)n(C[C@@H]3CCO3)c2c1 [Compound 149, (S)-2-((4-(4-benzyl-3,4-dihydro-2H-pyrido[3,2-b][1,4]oxazin-6-yl)piperazin-1-yl)methyl)-1-(oxetan-2-ylmethyl)-1H-benzo[d]imidazole-6-carboxylic acid/]		> 500
N#Cc1ccc(COc2cccc(N3CCN(Cc4nc5ccc(C(=O)O)cc5n4C[C@@H]4CCO4)CC3)c2)c(F)c1 [Compound 150, (S)-2-((4-(3-((4-cyano-2-fluorobenzyl)oxy)phenyl)piperazin-1-yl)methyl)-1-(oxetan-2-ylmethyl)-1H-benzo[d]imidazole-6-carboxylic acid]		0.9
O=C(O)c1ccc2nc(CN3CCC(c4cccc5c4CC(=O)N(c4ccccc4)C5)CC3)n(C[C@@H]3CCO3)c2c1 [Compound 152, (S)-1-(oxetan-2-ylmethyl)-2-((4-(3-oxo-2-phenyl-1,2,3,4-tetrahydroisoquinolin-5-yl)piperidin-1-yl)methyl)-1H-benzo[d]imidazole-6-carboxylic acid]		> 500
O=C(O)c1ccc2nc(CN3CCN(c4ccc5c(n4)N(Cc4ccccc4)CCC5)CC3)n(C[C@@H]3CCO3)c2c1 [Compound 153, (S)-2-((4-(8-benzyl-5,6,7,8-tetrahydro-1,8-naphthyridin-2-yl)piperazin-1-yl)methyl)-1-(oxetan-2-ylmethyl)-1H-benzo[d]imidazole-6-carboxylic acid]		> 500
O=C(O)c1ccc2nc(CN3CCN(c4ccc5c(n4)N(Cc4ccccc4)C(=O)CO5)CC3)n(C[C@@H]3CCO3)c2c1 [Compound 154, (S)-2-((4-(4-benzyl-3-oxo-3,4-dihydro-2H-pyrido[3,2-b][1,4]oxazin-6-yl)piperazin-1-yl)methyl)-1-(oxetan-2-ylmethyl)-1H-benzo[d]imidazole-6-carboxylic acid]		> 500
O=C(O)c1ccc2nc(CN3CCN(c4cccc5c4CCN(c4ccccc4)C5)CC3)n(C[C@@H]3CCO3)c2c1 [Compound 155, (S)-1-(oxetan-2-ylmethyl)-2-((4-(2-phenyl-1,2,3,4-tetrahydroisoquinolin-5-yl)piperazin-1-yl)methyl)-1H-benzo[d]imidazole-6-carboxylic acid]		> 500
O=C(O)c1ccc2nc(CN3CCN(c4cc5ccccc5c(OCc5ccccc5)n4)CC3)n(C[C@@H]3CCO3)c2c1 [Compound 156, (S)-2-((4-(1-(benzyloxy)isoquinolin-3-yl)piperazin-1-yl)methyl)-1-(oxetan-2-ylmethyl)-1H-benzo[d]imidazole-6-carboxylic acid]		87.1
O=C(O)c1ccc2nc(CN3CCN(c4nc(OCc5ccccc5)cc5ccccc45)CC3)n(C[C@@H]3CCO3)c2c1 [Compound 157, (S)-2-((4-(3-(benzyloxy)isoquinolin-1-yl)piperazin-1-yl)methyl)-1-(oxetan-2-ylmethyl)-1H-benzo[d]imidazole-6-carboxylic acid]		> 500
O=C(O)c1ccc2nc(CN3CCN(c4ccc5c(n4)N(Cc4ccccc4)C(=O)CC5)CC3)n(C[C@@H]3CCO3)c2c1 [Compound 158, (S)-2-((4-(8-benzyl-7-oxo-5,6,7,8-tetrahydro-1,8-naphthyridin-2-yl)piperazin-1-yl)methyl)-1-(oxetan-2-ylmethyl)-1H-benzo[d]imidazole-6-carboxylic acid]		> 500
O=C(O)c1ccc2nc(CN3CCC(n4cc5cccc(Oc6ccccc6)c5n4)CC3)n(C[C@@H]3CCO3)c2c1 [Compound 159, (S)-1-(oxetan-2-ylmethyl)-2-((4-(7-phenoxy-2H-indazol-2-yl)piperidin-1-yl)methyl)-1H-benzo[d]imidazole-6-carboxylic acid]		> 500
O=C(O)c1ccc2nc(CN3CCN(c4ccc5cc(-c6ccccc6)oc5n4)CC3)n(C[C@@H]3CCO3)c2c1 [Compound 160, (S)-1-(oxetan-2-ylmethyl)-2-((4-(2-phenylfuro[2,3-b]pyridin-6-yl)piperazin-1-yl)methyl)-1H-benzo[d]imidazole-6-carboxylic acid]		> 500
O=C(O)c1ccc2nc(CN3CCC(c4cccc(OC5CCCc6ccccc65)n4)CC3)n(C[C@@H]3CCO3)c2c1 (stereo partly drawn) [Compound 161, 1-(((S)-oxetan-2-yl)methyl)-2-((4-(6-((1,2,3,4-tetrahydronaphthalen-1-yl)oxy)pyridin-2-yl)piperidin-1-yl)methyl)-1H-benzo[d]imidazole-6-carboxylic acid]		304
O=C(O)c1ccc2nc(CN3CCN(c4ccc5c(n4)OC(c4ccccc4)CC5)CC3)n(C[C@@H]3CCO3)c2c1 (stereo partly drawn) [Compound 162, 1-(((S)-oxetan-2-yl)methyl)-2-((4-(2-phenyl-3,4-dihydro-2H-pyrano[2,3-b]pyridin-7-yl)piperazin-1-yl)methyl)-1H-benzo[d]imidazole-6-carboxylic acid]		> 500
CCn1ccnc1Cn1c(CN2CC[C@@]3(c4cccc(N5CCc6cc(C#N)cc(F)c6C5)n4)C[C@H]3C2)nc2ccc(C(=O)O)cc21 [Compound 163-P1, 2-(((1R,6S)-6-(6-(6-cyano-8-flluoro-3,4-dihydroisoquinolin-2(1H)-yl)pyridin-2-yl)-3-azabicyclo[4.1.0]heptan-3-yl)methyl)-1-((1-ethyl-1H-imidazol-2-yl)methyl)-1H-benzo[d]imidazole-6-carboxylic acid]		0.266
